Results: ChEMBL document CHEMBL3044716, “Discovery of imidacloprid and further developments from strategic molecular designs” (J Agric Food Chem, 2011)
Activity calls are given as the source filed them. No cut-off for these calls is given here.

Legend:
Nephotettix cincticeps [1] = test: Insecticidal activity against Nephotettix cincticeps (green rice leafhopper) assessed as mortality measured after 4 days; assay type: functional
[2] = Photolysis of the compound assessed as half life at 30 degC by 250 W sun lamp; assay type: physicochemical
Spodoptera litura = test: Insecticidal activity against Spodoptera litura (tobacco cutworm) assessed as mortality measured as LC90; assay type: functional
Nephotettix cincticeps [3] = test: Insecticidal activity against Nephotettix cincticeps (green rice leafhopper) in rice plant assessed as mortality at 100 mg/L insects released after 14 days of compound treatment measured after 24 hr of insect release; assay type: functional
Nephotettix cincticeps [4] = test: Insecticidal activity against Nephotettix cincticeps (green rice leafhopper) in rice plant assessed as mortality at 100 mg/L insects released after 14 days of compound treatment measured after 72 hr of insect release (reference value: 0%); assay type: functional
Nephotettix cincticeps [5] = test: Insecticidal activity against Nephotettix cincticeps (green rice leafhopper) in rice plant assessed as mortality at 100 mg/L insects released after 7 days of compound treatment measured after 48 hr of insect release; assay type: functional
Nephotettix cincticeps [6] = test: Insecticidal activity against Nephotettix cincticeps (green rice leafhopper) in rice plant assessed as mortality at 100 mg/L insects released after 7 days of compound treatment measured after 24 hr of insect release; assay type: functional
Nephotettix cincticeps [7] = test: Insecticidal activity against Nephotettix cincticeps (green rice leafhopper) in rice plant assessed as mortality at 100 mg/L insects released after 14 days of compound treatment measured after 48 hr of insect release; assay type: functional
Nephotettix cincticeps [8] = test: Insecticidal activity against Nephotettix cincticeps (green rice leafhopper) in rice plant assessed as mortality at 100 mg/L insects released after 7 days of compound treatment measured after 72 hr of insect release (reference value: 0%); assay type: functional
Nephotettix cincticeps [9] = test: Insecticidal activity against Nephotettix cincticeps (green rice leafhopper) in rice plant assessed as mortality at 100 mg/L insects released after 3 days of compound treatment measured after 24 hr of insect release; assay type: functional
Nephotettix cincticeps [10] = test: Insecticidal activity against Nephotettix cincticeps (green rice leafhopper) in rice plant assessed as mortality at 100 mg/L insects released after 3 days of compound treatment measured after 72 hr of insect release (reference value: 0%); assay type: functional
Nephotettix cincticeps [11] = test: Insecticidal activity against Nephotettix cincticeps (green rice leafhopper) in rice plant assessed as mortality at 100 mg/L insects released after 3 days of compound treatment measured after 48 hr of insect release; assay type: functional
Myzus persicae [12] = test: Insecticidal activity against Myzus persicae (green peach aphid) in cabbage plant assessed as mortality at 100 mg/L insects released after 14 days of compound treatment measured after 72 hr of insect release (reference value: 0%); assay type: functional
Myzus persicae [13] = test: Insecticidal activity against Myzus persicae (green peach aphid) in cabbage plant assessed as mortality at 100 mg/L insects released after 3 days of compound treatment measured after 72 hr of insect release (reference value: 14 +/- 4%); assay type: functional
Myzus persicae [14] = test: Insecticidal activity against Myzus persicae (green peach aphid) in cabbage plant assessed as mortality at 100 mg/L insects released after 7 days of compound treatment measured after 72 hr of insect release (reference value: 10 +/- 3%); assay type: functional

SMILES: N#C/C=C1\NCCN1Cc1ccc(Cl)nc1
- LC90 (Nephotettix cincticeps [1]): inactive

SMILES: O=[N+]([O-])/C=C1\NCCN1Cc1cncnc1
- LC90 (Nephotettix cincticeps [1]): 8 ppm

SMILES: CCOC(=O)/C=C1\NCCN1Cc1ccc(Cl)nc1
- LC90 (Nephotettix cincticeps [1]): inactive

SMILES: O=[N+]([O-])N=C1N(Cc2ccc(Cl)nc2)CCN1Cc1ccc(Cl)nc1
- LC90 (Nephotettix cincticeps [1]): 1.6 ppm

SMILES: O=[N+]([O-])C=C1NCCCS1
- half-life [2]: 0.5 h
- LC90 (Spodoptera litura): <40 ppm
- LC90 (Nephotettix cincticeps [1]): 40 ppm

SMILES: N#C/N=C1\NCCN1Cc1ccc(Cl)nc1
- half-life [2]: > 24 h
- LC90 (Nephotettix cincticeps [1]): 0.32 ppm

SMILES: O=[N+]([O-])/C=C1\NCCN1Cc1ccncn1
- LC90 (Nephotettix cincticeps [1]): 40 ppm

SMILES: CCCCCN1CCN(Cc2ccc(Cl)nc2)/C1=N/[N+](=O)[O-]
- LC90 (Nephotettix cincticeps [1]): 20 ppm

SMILES: Cc1ccc(CN2CCN/C2=C\[N+](=O)[O-])cc1
- LC90 (Nephotettix cincticeps [1]): 200 ppm

SMILES: O=[N+]([O-])/C=C1\NCCN1Cc1ccccc1Cl
- LC90 (Nephotettix cincticeps [1]): inactive

SMILES: O=[N+]([O-])/C=C1\NCCN1Cc1ccco1
- LC90 (Nephotettix cincticeps [1]): 200 ppm

SMILES: CN1CCN(Cc2ccc(Cl)nc2)/C1=N/[N+](=O)[O-]
- LC90 (Nephotettix cincticeps [1]): 1.6 ppm

SMILES: O=[N+]([O-])/C=C1\NCCN1Cc1cnco1
- LC90 (Nephotettix cincticeps [1]): 40 ppm

SMILES: N#Cc1cccc(CN2CCN/C2=C\[N+](=O)[O-])c1
- LC90 (Nephotettix cincticeps [1]): 40 ppm

SMILES: O=[N+]([O-])/C=C1\NCCN1Cc1ccc(F)nc1
- LC90 (Nephotettix cincticeps [1]): 0.32 ppm

SMILES: O=[N+]([O-])/C=C1\NCCN1Cc1ccsc1
- LC90 (Nephotettix cincticeps [1]): 200 ppm

SMILES: O=[N+]([O-])/C=C1\NCCCN1Cc1ccccc1
- LC90 (Nephotettix cincticeps [1]): >200 ppm

SMILES: O=[N+]([O-])/C=C1\NCCN1Cc1cccnc1
- LC90 (Nephotettix cincticeps [1]): 8 ppm

SMILES: O=[N+]([O-])/C=C1\NCCN1Cc1cccc(Cl)c1
- LC90 (Nephotettix cincticeps [1]): 200 ppm

SMILES: O=[N+]([O-])/C=C1\NCCCCN1Cc1ccccc1
- LC90 (Nephotettix cincticeps [1]): 1000 ppm

SMILES: O=[N+]([O-])C=C1NCCN1 [2-(NITROMETHYLENE)IMIDAZOLIDINE]
- LC90 (Nephotettix cincticeps [1]): 1000 ppm

SMILES: O=[N+]([O-])/C=C1\NCCN1Cc1cncs1
- LC90 (Nephotettix cincticeps [1]): 8 ppm

SMILES: CCCN1CCN(Cc2ccc(Cl)nc2)/C1=N/[N+](=O)[O-]
- LC90 (Nephotettix cincticeps [1]): 0.32 ppm

SMILES: N#Cc1ccc(CN2CCN/C2=C\[N+](=O)[O-])cn1
- LC90 (Nephotettix cincticeps [1]): 200 ppm

SMILES: CN1CCN/C1=C\[N+](=O)[O-]
- LC90 (Nephotettix cincticeps [1]): 1000 ppm

SMILES: O=[N+]([O-])/C=C1\NCCN1Cc1ccc(C(F)(F)F)nc1
- LC90 (Nephotettix cincticeps [1]): 8 ppm

SMILES: CS(=O)(=O)/N=C1\NCCN1Cc1ccc(Cl)nc1
- LC90 (Nephotettix cincticeps [1]): 40 ppm

SMILES: CCOC(=O)/N=C1\NCCN1Cc1ccc(Cl)nc1
- LC90 (Nephotettix cincticeps [1]): 40 ppm

SMILES: O=[N+]([O-])/C=C1\NCCN1Cc1ccc([N+](=O)[O-])cc1
- LC90 (Nephotettix cincticeps [1]): 200 ppm

SMILES: C=CCN1CCN(Cc2ccc(Cl)nc2)/C1=N/[N+](=O)[O-]
- LC90 (Nephotettix cincticeps [1]): 0.32 ppm

SMILES: COc1ccc(CN2CCN/C2=C\[N+](=O)[O-])cc1
- LC90 (Nephotettix cincticeps [1]): 200 ppm

SMILES: O=[N+]([O-])/C=C1\NCCN1Cc1cnc2ccccc2c1
- LC90 (Nephotettix cincticeps [1]): inactive

SMILES: CC(C)N1CCN(Cc2ccc(Cl)nc2)/C1=N/[N+](=O)[O-]
- LC90 (Nephotettix cincticeps [1]): 40 ppm

SMILES: O=[N+]([O-])/C=C1\NCCN1Cc1ccccc1
- LC90 (Nephotettix cincticeps [1]): 200 ppm

SMILES: O=[N+]([O-])/C=C1\NCCCCCN1Cc1ccccc1
- LC90 (Nephotettix cincticeps [1]): 1000 ppm

SMILES: CSc1ccc(CN2CCN/C2=C\[N+](=O)[O-])cn1
- LC90 (Nephotettix cincticeps [1]): 1000 ppm

SMILES: O=[N+]([O-])/N=C1\NCCCN1Cc1ccc(Cl)nc1
- half-life [2]: 3.5 h

SMILES: COc1ccc(CN2CCN/C2=C\[N+](=O)[O-])cn1
- LC90 (Nephotettix cincticeps [1]): 200 ppm

SMILES: O=[N+]([O-])/C=C1\NCCN1Cc1ccc(Cl)cc1
- LC90 (Spodoptera litura): 500 ppm
- LC90 (Nephotettix cincticeps [1]): 40 ppm

SMILES: O=[N+]([O-])/C=C1\NCCN1Cc1ccncc1
- LC90 (Nephotettix cincticeps [1]): 8 ppm

SMILES: O=[N+]([O-])/C=C1\NCCN1Cc1ccccn1
- LC90 (Nephotettix cincticeps [1]): 200 ppm

SMILES: N#CC(C#N)=C1NCCN1Cc1ccc(Cl)nc1
- LC90 (Nephotettix cincticeps [1]): 40 ppm

SMILES: O=[N+]([O-])/N=C1\NCCN1Cc1ccc(Cl)nc1 [IMIDACLOPRID]
- mortality (Nephotettix cincticeps [3]): 95%
- mortality (Nephotettix cincticeps [4]): 100%
- mortality (Nephotettix cincticeps [5]): 100%
- mortality (Nephotettix cincticeps [6]): 89%
- half-life [2]: 3 h
- mortality (Nephotettix cincticeps [7]): 100%
- mortality (Nephotettix cincticeps [8]): 100%
- mortality (Nephotettix cincticeps [9]): 47%
- mortality (Nephotettix cincticeps [10]): 100%
- LC90 (Nephotettix cincticeps [1]): <0.32 ppm
- mortality (Nephotettix cincticeps [11]): 80%

SMILES: O=[N+]([O-])/C=C1\NCCN1Cc1cncc(Cl)c1
- LC90 (Nephotettix cincticeps [1]): 40 ppm

SMILES: O=C1NCCN1Cc1ccc(Cl)nc1
- LC90 (Nephotettix cincticeps [1]): 1000 ppm

SMILES: O=[N+]([O-])/N=C1/N(CCCCCCCN2CCN(Cc3ccc(Cl)nc3)/C2=N/[N+](=O)[O-])CCN1Cc1ccc(Cl)nc1 [Heptamethylene 1,7-bis-imadacloprid]
- mortality (Myzus persicae [12]): 100%
- mortality (Nephotettix cincticeps [3]): 100%
- mortality (Nephotettix cincticeps [4]): 100%
- mortality (Nephotettix cincticeps [5]): 100%
- mortality (Myzus persicae [13]): 100%
- mortality (Nephotettix cincticeps [6]): 83%
- mortality (Nephotettix cincticeps [7]): 100%
- mortality (Nephotettix cincticeps [8]): 100%
- mortality (Nephotettix cincticeps [9]): 13%
- mortality (Nephotettix cincticeps [10]): 100%
- mortality (Myzus persicae [14]): 100%
- mortality (Nephotettix cincticeps [11]): 40%

SMILES: O=[N+]([O-])/C=C1\NCCN1Cc1ccn[nH]1
- LC90 (Nephotettix cincticeps [1]): 200 ppm

SMILES: O=[N+]([O-])/N=C1/N(CCCCCCN2CCN(Cc3ccc(Cl)nc3)/C2=N/[N+](=O)[O-])CCN1Cc1ccc(Cl)nc1 [Hexamethylene 1,6-bis-imadacloprid]
- mortality (Myzus persicae [12]): 50%
- mortality (Nephotettix cincticeps [3]): 60%
- mortality (Nephotettix cincticeps [4]): 100%
- mortality (Nephotettix cincticeps [5]): 94%
- mortality (Myzus persicae [13]): 83%
- mortality (Nephotettix cincticeps [6]): 59%
- mortality (Nephotettix cincticeps [7]): 100%
- mortality (Nephotettix cincticeps [8]): 94%
- mortality (Nephotettix cincticeps [9]): 56%
- mortality (Nephotettix cincticeps [10]): 89%
- mortality (Myzus persicae [14]): 55%
- mortality (Nephotettix cincticeps [11]): 78%

SMILES: CCN1CCN(Cc2ccc(Cl)nc2)/C1=N/[N+](=O)[O-]
- LC90 (Nephotettix cincticeps [1]): 8 ppm

SMILES: O=[N+]([O-])/C=C1\NCCN1c1ccccc1
- LC90 (Nephotettix cincticeps [1]): 1000 ppm

SMILES: O=[N+]([O-])/C=C1\NCCN1Cc1ccc[nH]1
- LC90 (Nephotettix cincticeps [1]): 200 ppm

SMILES: O=[N+]([O-])/C=C1\NCCN1Cc1ccc(Cl)nc1
- half-life [2]: 1 h
- LC90 (Nephotettix cincticeps [1]): 0.32 ppm

SMILES: O=[N+]([O-])/C=C1\SCCN1Cc1ccc(Cl)nc1
- half-life [2]: < 0.5 h

SMILES: O=[N+]([O-])/C=C1\NCCN1Cc1cccnc1Cl
- LC90 (Nephotettix cincticeps [1]): 200 ppm

SMILES: O=[N+]([O-])/C=C1\NCCN1Cc1cccs1
- LC90 (Nephotettix cincticeps [1]): 200 ppm

SMILES: O=[N+]([O-])/C=C1\NCCCN1Cc1ccc(Cl)nc1
- half-life [2]: 2 h

SMILES: Cc1ccc(CN2CCN/C2=C\[N+](=O)[O-])cn1
- LC90 (Nephotettix cincticeps [1]): 1.6 ppm

SMILES: CC(=O)Nc1ccc(CN2CCN/C2=C\[N+](=O)[O-])cn1
- LC90 (Nephotettix cincticeps [1]): 1000 ppm

SMILES: CCCCCCN1CCN(Cc2ccc(Cl)nc2)/C1=N/[N+](=O)[O-]
- LC90 (Nephotettix cincticeps [1]): 40 ppm

SMILES: O=[N+]([O-])/C=C1\NCCN1Cc1cnccn1
- LC90 (Nephotettix cincticeps [1]): 8 ppm

SMILES: O=[N+]([O-])/C=C1\NCCN1Cc1ccc(Br)nc1
- LC90 (Nephotettix cincticeps [1]): 1.6 ppm

SMILES: O=[N+]([O-])/C=C1\NCCN1CCc1ccccc1
- LC90 (Nephotettix cincticeps [1]): inactive

SMILES: O=[N+]([O-])/C=C1\NCCN1C1CCCCC1
- LC90 (Nephotettix cincticeps [1]): 1000 ppm

SMILES: N=C1NCCN1Cc1ccc(Cl)nc1 [DESNITROIMIDACLOPRID]
- LC90 (Nephotettix cincticeps [1]): 1000 ppm

SMILES: CCCCN1CCN(Cc2ccc(Cl)nc2)/C1=N/[N+](=O)[O-]
- LC90 (Nephotettix cincticeps [1]): 1.6 ppm

SMILES: CN/C(=C\[N+](=O)[O-])NCc1ccccc1
- LC90 (Nephotettix cincticeps [1]): inactive

SMILES: O=[N+]([O-])/C=C1\NCCN1CC1CCCO1 (centres undefined)
- LC90 (Nephotettix cincticeps [1]): 500 ppm
